Data: patent US20170050957A1, “4-AMINO-6-(HETEROCYCLIC)PICOLINATES AND 6-AMINO-2-(HETEROCYCLIC)PYRIMIDINE-4-CARBOXYLATES AND THEIR USE AS HERBICIDES” (Dow AgroSciences LLC, priority 2013, published 2017)
Like-named read-outs stand apart in the source and are kept apart here.

Experiments:
[1] = tested on: Key Grass and Sedge Weeds as well as Grass Crops; assay: Post-emergent Test II herbicidal activity (Table 16); format: in vivo; conditions: post-emergence, 336 h, 14 d; for pest or weed control at 35 g/ha: 35 g ai/ha; for pest or weed control at 70 g/ha: 70 g ai/ha; for pest or weed control at 140 g/ha: 140 g ai/ha
Outline: (§1)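 Visual injury rating (0 = none, 100 = complete kill) taken 14 d after treatment, relative to untreated plants. Compounds in acetone/DMSO with crop oil concentrate and Triton X-155 were track-sprayed at 187 L/ha onto seedlings at the first-second true leaf stage.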

[2] = tested on: Key Broadleaf Weed and Crop Species; assay: Post-emergent Test II herbicidal activity (Table 15); format: in vivo; conditions: post-emergence, 336 h, 14 d; for pest or weed control at 35 g/ha: 35 g ai/ha; for pest or weed control at 70 g/ha: 70 g ai/ha; for pest or weed control at 140 g/ha: 140 g ai/ha
Outline: as §1

[3] = Cyperus esculentus, yellow nutsedge (Cyperus esculentus), read-out: Visual Growth Reduction (%) 14 Days After Application, CYPES
[4] = Echinochloa crus-galli, barnyardgrass (Echinochloa crus-galli), read-out: Visual Growth Reduction (%) 14 Days After Application, ECHCG
[5] = Oryza sativa, rice (Oryza sativa), read-out: Visual Growth Reduction (%) 14 Days After Application, ORYSA
[6] = Setaria faberi, giant foxtail (Setaria faberi), read-out: Visual Growth Reduction (%) 14 Days After Application, SETFA
[7] = Triticum aestivum, wheat, spring (Triticum aestivum), read-out: Visual Growth Reduction (%) 14 Days After Application, TRZAS
[8] = Zea mays, maize, corn (Zea mays), read-out: Visual Growth Reduction (%) 14 Days After Application, ZEAMX
[9] = Abutilon theophrasti, velvetleaf (Abutilon theophrasti), read-out: Visual Growth Reduction (%) 14 Days After Application, ABUTH
[10] = Amaranthus retroflexus, redroot pigweed (Amaranthus retroflexus), read-out: Visual Growth Reduction (%) 14 Days After Application, AMARE
[11] = Brassica napus, oilseed rape, canola (Brassica napus), read-out: Visual Growth Reduction (%) 14 Days After Application, BRSNN
[12] = Chenopodium album, lambsquarters (Chenopodium album), read-out: Visual Growth Reduction (%) 14 Days After Application, CHEAL
[13] = Euphorbia heterophylla, wild poinsettia (Euphorbia heterophylla), read-out: Visual Growth Reduction (%) 14 Days After Application, EPHHL
[14] = Helianthus annuus, sunflower (Helianthus annuus), read-out: Visual Growth Reduction (%) 14 Days After Application, HELAN

Cc1c(-c2ccc3cc[nH]c3c2)nc(C(=O)O)c(Cl)c1N [Compound 1.29]
85 to 94%: pest or weed control at 140 g/ha [2, 11]
60 to 74%: pest or weed control at 35 g/ha [2, 14] | pest or weed control at 70 g/ha [2, 14]
45 to 59%: pest or weed control at 35 g/ha [2, 10] | pest or weed control at 35 g/ha [2, 12] | pest or weed control at 70 g/ha [2, 12]
30 to 44%: pest or weed control at 140 g/ha [1, 3]
0 to 29%: pest or weed control at 35 g/ha [1, 3] | pest or weed control at 70 g/ha [1, 3] | pest or weed control at 35 g/ha [1, 4] | pest or weed control at 70 g/ha [1, 4] | pest or weed control at 140 g/ha [1, 4] | pest or weed control at 35 g/ha [1, 5] | pest or weed control at 70 g/ha [1, 5] | pest or weed control at 140 g/ha [1, 5] | pest or weed control at 35 g/ha [1, 6] | pest or weed control at 70 g/ha [1, 6] | pest or weed control at 140 g/ha [1, 6] | pest or weed control at 35 g/ha [1, 7] | pest or weed control at 70 g/ha [1, 7] | pest or weed control at 140 g/ha [1, 7] | pest or weed control at 35 g/ha [1, 8] | pest or weed control at 70 g/ha [1, 8] | pest or weed control at 140 g/ha [1, 8] | pest or weed control at 35 g/ha [2, 9] | pest or weed control at 70 g/ha [2, 9] | pest or weed control at 140 g/ha [2, 9] | pest or weed control at 70 g/ha [2, 10] | pest or weed control at 140 g/ha [2, 10] | pest or weed control at 35 g/ha [2, 13] | pest or weed control at 70 g/ha [2, 13] | pest or weed control at 140 g/ha [2, 13]
168 to 175 °C: melting point
75 to 84%: pest or weed control at 35 g/ha [2, 11] | pest or weed control at 70 g/ha [2, 11] | pest or weed control at 140 g/ha [2, 12] | pest or weed control at 140 g/ha [2, 14]

COC(=O)c1nc(-c2ccc3cc[nH]c3c2)nc(N)c1Cl [Compound 1.30]
30 to 44%: pest or weed control at 35 g/ha [2, 12] | pest or weed control at 70 g/ha [2, 12]
240 to 242 °C: melting point
60 to 74%: pest or weed control at 140 g/ha [2, 10] | pest or weed control at 140 g/ha [2, 11] | pest or weed control at 140 g/ha [2, 13]
45 to 59%: pest or weed control at 35 g/ha [2, 11] | pest or weed control at 70 g/ha [2, 11] | pest or weed control at 140 g/ha [2, 12] | pest or weed control at 70 g/ha [2, 13]
0 to 29%: pest or weed control at 35 g/ha [1, 3] | pest or weed control at 70 g/ha [1, 3] | pest or weed control at 140 g/ha [1, 3] | pest or weed control at 35 g/ha [1, 4] | pest or weed control at 70 g/ha [1, 4] | pest or weed control at 140 g/ha [1, 4] | pest or weed control at 35 g/ha [1, 5] | pest or weed control at 70 g/ha [1, 5] | pest or weed control at 140 g/ha [1, 5] | pest or weed control at 35 g/ha [1, 6] | pest or weed control at 70 g/ha [1, 6] | pest or weed control at 140 g/ha [1, 6] | pest or weed control at 35 g/ha [1, 7] | pest or weed control at 70 g/ha [1, 7] | pest or weed control at 140 g/ha [1, 7] | pest or weed control at 35 g/ha [1, 8] | pest or weed control at 70 g/ha [1, 8] | pest or weed control at 140 g/ha [1, 8] | pest or weed control at 35 g/ha [2, 9] | pest or weed control at 70 g/ha [2, 9] | pest or weed control at 35 g/ha [2, 10] | pest or weed control at 35 g/ha [2, 13] | pest or weed control at 35 g/ha [2, 14] | pest or weed control at 70 g/ha [2, 14] | pest or weed control at 140 g/ha [2, 14]
75 to 84%: pest or weed control at 140 g/ha [2, 9] | pest or weed control at 70 g/ha [2, 10]

COC(=O)c1nc(-c2ccc3cc[nH]c3c2F)nc(N)c1Cl [Compound 1.31]
0 to 29%: pest or weed control at 35 g/ha [1, 3] | pest or weed control at 70 g/ha [1, 3] | pest or weed control at 140 g/ha [1, 3] | pest or weed control at 35 g/ha [1, 5] | pest or weed control at 70 g/ha [1, 5] | pest or weed control at 140 g/ha [1, 5] | pest or weed control at 70 g/ha [1, 7] | pest or weed control at 35 g/ha [1, 8] | pest or weed control at 70 g/ha [1, 8] | pest or weed control at 140 g/ha [1, 8]
185 to 190 °C: melting point
30 to 44%: pest or weed control at 140 g/ha [1, 7] | pest or weed control at 35 g/ha [2, 14]
75 to 84%: pest or weed control at 35 g/ha [1, 4] | pest or weed control at 70 g/ha [1, 4] | pest or weed control at 70 g/ha [1, 6] | pest or weed control at 35 g/ha [1, 7]
60 to 74%: pest or weed control at 35 g/ha [1, 6] | pest or weed control at 70 g/ha [2, 9] | pest or weed control at 140 g/ha [2, 9] | pest or weed control at 35 g/ha [2, 10] | pest or weed control at 140 g/ha [2, 14]
95 to 100%: pest or weed control at 70 g/ha [2, 10] | pest or weed control at 140 g/ha [2, 10] | pest or weed control at 70 g/ha [2, 11] | pest or weed control at 140 g/ha [2, 11] | pest or weed control at 35 g/ha [2, 12] | pest or weed control at 70 g/ha [2, 12] | pest or weed control at 140 g/ha [2, 12] | pest or weed control at 35 g/ha [2, 13] | pest or weed control at 70 g/ha [2, 13] | pest or weed control at 140 g/ha [2, 13]
85 to 94%: pest or weed control at 140 g/ha [1, 4] | pest or weed control at 140 g/ha [1, 6] | pest or weed control at 35 g/ha [2, 11]
45 to 59%: pest or weed control at 35 g/ha [2, 9] | pest or weed control at 70 g/ha [2, 14]
